Values of other authors as cited in patent US7132111B2, “Odorless formulation for treating mucosal discontinuities” (Epien Medical, Inc., priority 2003, dated 2006).

Test system: aphthous ulcers
Details: applied locally, three times a day

Structure (SMILES): CN(C)[C@@H]1C(O)=C(C(N)=O)C(=O)[C@@]2(O)C(O)=C3C(=O)c4c(O)ccc(Cl)c4[C@@](C)(O)[C@H]3C[C@@H]12 [Aureomycin]
- duration of analgesic effect: one half to two
- duration of the ulcers with treatment (reduced from about 10 days): ~5 days
